# Laboratory results as given in ChEMBL document CHEMBL6092157, “PET imaging assist investigation of HDAC6 expression change in MDD and evaluating antidepressant efficacy of a newly developed HDAC6 inhibitor” (Eur J Med Chem, 2024).
# Calls of active or inactive are those of the source. The rule behind the calls is not given here.
# Key:
# [1] = MRT (0 to infinity) in C57BL/6 mouse at 20 mg/kg, iv by LC-MS/MS analysis; type: ADME, organism-based; conditions: in vivo
# [2] = Drug concentration in plasma of C57BL/6 mouse at 1 mg/kg, ip measured for 1 hr by LC-MS/MS analysis; type: ADME, organism-based
# [3] = AUC (0 to infinity) in C57BL/6 mouse at 20 mg/kg, ip by LC-MS/MS analysis; type: ADME, organism-based; conditions: in vivo
# [4] = Drug concentration in brain of C57BL/6 mouse at 1 mg/kg, ip measured for 4 hrs by LC-MS/MS analysis; type: ADME, organism-based; conditions: read-out: Ct
# [5] = Cmax in C57BL/6 mouse at 20 mg/kg, iv by LC-MS/MS analysis; type: ADME, organism-based; conditions: in vivo
# [6] = Drug concentration in brain of C57BL/6 mouse at 1 mg/kg, ip measured for 1 hr by LC-MS/MS analysis; type: ADME, organism-based; conditions: read-out: Ct
# [7] = Cmax in C57BL/6 mouse at 20 mg/kg, ip by LC-MS/MS analysis; type: ADME, organism-based; conditions: in vivo
# [8] = Drug concentration in plasma of C57BL/6 mouse at 1 mg/kg, ip measured for 0.5 hrs by LC-MS/MS analysis; type: ADME, organism-based
# [9] = Toxicity in chronic unpredictable mild stress C57BL/6 mouse model assessed as abnormality in organs at 20 mg/kg, ip qd for 21 days by H and E staining based analysis; type: organism-based; conditions: in vivo, 504 h, time 21 day
# [10] = MRT (0 to infinity) in C57BL/6 mouse at 20 mg/kg, ip by LC-MS/MS analysis; type: ADME, organism-based; conditions: in vivo
# Mus musculus [11] = assay: Antidepressant activity in chronic unpredictable mild stress C57BL/6 mouse model assessed as longer duration spent in central area of open field at 20 mg/kg, ip qd for 21 days by open field test; type: functional, organism-based; conditions: time 21.0 day
# [12] = […] bioavailability in C57BL/6 mouse at 20 mg/kg by LC-MS/MS analysis; type: ADME, organism-based; conditions: in vivo
# Mus musculus [13] = organism: Mus musculus; assay: Upregulation of tubulin acetylation in brain of chronic unpredictable mild stress C57BL/6 mouse model by IHC analysis; type: functional, organism-based
# [14] = Toxicity in chronic unpredictable mild stress C57BL/6 mouse model assessed as animal death at 20 mg/kg, ip qd for 21 days; type: organism-based; conditions: in vivo, 504 h, time 21 day
# [15] = Toxicity in chronic unpredictable mild stress C57BL/6 mouse model assessed as damage in organs at 20 mg/kg, ip qd for 21 days by H and E staining based analysis; type: organism-based; conditions: in vivo, 504 h, time 21 day
# Mus musculus [16] = assay: Antidepressant activity in chronic unpredictable mild stress C57BL/6 mouse model assessed as shorter feeding latency to eat at 20 mg/kg, ip qd for 21 days by novelty-suppressed feeding test; type: functional, organism-based; conditions: time 21.0 day
# Mus musculus [17] = assay: Antidepressant activity in chronic unpredictable mild stress C57BL/6 mouse model assessed as reduction in immobility time at 20 mg/kg, ip qd for 21 days by tail suspension test; type: functional, organism-based; conditions: time 21.0 day
# [18] = Drug concentration in plasma of C57BL/6 mouse at 1 mg/kg, ip measured for 4 hrs by LC-MS/MS analysis; type: ADME, organism-based
# [19] = Drug concentration in brain of C57BL/6 mouse at 1 mg/kg, ip measured for 0.5 hrs by LC-MS/MS analysis; type: ADME, organism-based; conditions: read-out: Ct
# [20] = Tmax in C57BL/6 mouse at 20 mg/kg, ip by LC-MS/MS analysis; type: ADME, organism-based; conditions: in vivo
# [21] = Half life in C57BL/6 mouse at 20 mg/kg, iv by LC-MS/MS analysis; type: ADME, organism-based; conditions: in vivo
# [22] = Ratio of drug concentration in brain to plasma of C57BL/6 mouse at 1 mg/kg, ip measured for 1 hr by LC-MS/MS analysis; type: ADME, organism-based; conditions: read-out: BPR
# [23] = Ratio of drug concentration in brain to plasma of C57BL/6 mouse at 1 mg/kg, ip measured for 4 hrs by LC-MS/MS analysis; type: ADME, organism-based; conditions: read-out: BPR
# [24] = Ratio of drug concentration in brain to plasma of C57BL/6 mouse at 1 mg/kg, ip measured for 0.5 hrs by LC-MS/MS analysis; type: ADME, organism-based; conditions: read-out: BPR
# Mus musculus [25] = assay: Antidepressant activity in chronic unpredictable mild stress C57BL/6 mouse model assessed as longer duration spent in central area at 20 mg/kg, ip qd for 21 days by open field test; type: functional, organism-based; conditions: time 21.0 day
# [26] = Toxicity in chronic unpredictable mild stress C57BL/6 mouse model assessed as histomorphological changes at 20 mg/kg, ip qd for 21 days; type: organism-based; conditions: in vivo, 504 h, time 21 day
# [27] = Half life in C57BL/6 mouse at 20 mg/kg, ip by LC-MS/MS analysis; type: ADME, organism-based; conditions: in vivo
# [28] = AUC (0 to infinity) in C57BL/6 mouse at 20 mg/kg, iv by LC-MS/MS analysis; type: ADME, organism-based; conditions: in vivo
# [29] = biological target: T1, Protein deacetylase HDAC6 (Mus musculus) (UniProt Q9Z2V5); assay: In vivo inhibition of HDAC6 in brain of chronic unpredictable mild stress C57BL/6 mouse model by IHC analysis; type: functional, organism-based
# T1 sequence (whole entry): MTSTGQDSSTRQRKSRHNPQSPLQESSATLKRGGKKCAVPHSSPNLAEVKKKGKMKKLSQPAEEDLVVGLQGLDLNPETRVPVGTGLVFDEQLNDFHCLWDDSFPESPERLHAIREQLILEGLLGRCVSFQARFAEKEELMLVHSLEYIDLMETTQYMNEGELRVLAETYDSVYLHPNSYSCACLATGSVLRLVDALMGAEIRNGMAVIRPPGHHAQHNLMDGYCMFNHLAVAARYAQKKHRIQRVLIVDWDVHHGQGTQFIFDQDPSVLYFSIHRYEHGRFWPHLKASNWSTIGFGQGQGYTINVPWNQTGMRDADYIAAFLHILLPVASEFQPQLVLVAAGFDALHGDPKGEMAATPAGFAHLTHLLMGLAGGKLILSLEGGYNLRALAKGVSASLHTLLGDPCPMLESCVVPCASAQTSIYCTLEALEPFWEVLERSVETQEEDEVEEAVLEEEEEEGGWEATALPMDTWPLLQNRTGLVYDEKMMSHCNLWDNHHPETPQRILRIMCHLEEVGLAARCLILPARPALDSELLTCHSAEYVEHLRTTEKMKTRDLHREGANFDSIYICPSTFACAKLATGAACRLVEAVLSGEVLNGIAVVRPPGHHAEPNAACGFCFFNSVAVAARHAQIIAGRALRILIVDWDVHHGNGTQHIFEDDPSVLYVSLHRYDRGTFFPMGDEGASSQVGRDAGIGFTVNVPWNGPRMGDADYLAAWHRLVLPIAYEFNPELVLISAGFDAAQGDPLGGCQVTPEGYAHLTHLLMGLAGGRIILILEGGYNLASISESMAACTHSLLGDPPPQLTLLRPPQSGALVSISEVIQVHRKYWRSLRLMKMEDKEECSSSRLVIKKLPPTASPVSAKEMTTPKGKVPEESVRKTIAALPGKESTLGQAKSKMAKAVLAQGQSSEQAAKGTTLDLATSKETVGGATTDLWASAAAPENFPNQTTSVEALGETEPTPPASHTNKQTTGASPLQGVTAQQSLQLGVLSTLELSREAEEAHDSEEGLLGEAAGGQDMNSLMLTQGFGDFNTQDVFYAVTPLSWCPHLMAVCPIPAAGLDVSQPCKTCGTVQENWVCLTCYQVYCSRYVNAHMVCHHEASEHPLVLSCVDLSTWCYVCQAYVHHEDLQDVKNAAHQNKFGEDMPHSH
# [30] = Drug uptake in kidney of chronic unpredictable mild stress C57BL/6 mouse model by PET imaging analysis; type: ADME, tissue-based; conditions: in vivo
# [31] = Drug uptake in hippocampus of chronic unpredictable mild stress C57BL/6 mouse model by PET imaging analysis; type: ADME, tissue-based; conditions: in vivo
# [32] = Drug uptake in lung of chronic unpredictable mild stress C57BL/6 mouse model by PET imaging analysis; type: ADME, tissue-based; conditions: in vivo
# [33] = Drug uptake in spleen of chronic unpredictable mild stress C57BL/6 mouse model by PET imaging analysis; type: ADME, tissue-based; conditions: in vivo
# [34] = Drug uptake in striatum of chronic unpredictable mild stress C57BL/6 mouse model by PET imaging analysis; type: ADME, tissue-based; conditions: in vivo
# [35] = Drug uptake in heart of chronic unpredictable mild stress C57BL/6 mouse model by PET imaging analysis; type: ADME, tissue-based; conditions: in vivo
# [36] = Drug uptake in hypothalamus of chronic unpredictable mild stress C57BL/6 mouse model by PET imaging analysis; type: ADME, tissue-based; conditions: in vivo
# [37] = Drug uptake in liver of chronic unpredictable mild stress C57BL/6 mouse model by PET imaging analysis; type: ADME, tissue-based; conditions: in vivo
smiles,measurement,setting,value
Cc1ccc2c(n1)N(Cc1ccc(C(=O)NO)cc1F)CCC2,MRT inf,[1],17.4 min
same,concentration at 1 h,[2],2.6 ng/mL
same,AUC(0-inf),[3],0.521 µg·h/mL
same,concentration at 4 h,[4],0.42 ng/mL
same,Cmax,[5],3600 ng/mL
same,concentration at 1 h,[6],10.3 ng/mL
same,Cmax,[7],1510 ng/mL
same,concentration at 0.5 h,[8],3.3 ng/mL
same,Activity,[9],Non-toxic
same,MRT inf,[10],24 min
same,Activity,Mus musculus [11],Active
same,bioavailability,[12],47.7%
same,Activity,Mus musculus [13],Active
same,Activity,[14],Non-toxic
same,Activity,[15],Non-toxic
same,Activity,Mus musculus [16],Active
same,Activity,Mus musculus [17],Active
same,concentration at 4 h,[18],0.21 ng/mL
same,concentration at 0.5 h,[19],26.5 ng/mL
same,Tmax,[20],4.98 min
same,half-life,[21],33 min
same,Kp at 1 h,[22],3.9
same,Kp at 4 h,[23],2.1
same,Kp at 0.5 h,[24],7.9
same,Activity,Mus musculus [25],Active
same,Activity,[26],Non-toxic
same,half-life,[27],54.6 min
same,AUC(0-inf),[28],1.09 µg·h/mL
same,inhibition,[29],Active
CN(Cc1ccc(C(=O)NO)cc1[18F])CC12CC3CC(CC(C3)C1)C2,Drug uptake,[30],Active
same,Drug uptake,[31],Active
same,Drug uptake,[32],Active
same,Drug uptake,[33],Active
same,Drug uptake,[34],Active
same,Drug uptake,[35],Active
same,Drug uptake,[36],Active
same,Drug uptake,[37],Active
